Our source for the IC50 values is patent US20060116390A1, “Hepatitis c virus inhibitors” (priority 2003, published 2006).

The subject of this assay is HCV proteins in Rep5.1 cells (replicon cell line). As to the kind of experiment: Inhibitory activity of HCV: cell-based ELISA in replicon cell line Rep5.1 (decrease of HCV proteins). The arrangement: species or system hepatitis C virus. The settings on record: Rep5.1 cells, 72 hours with drug. The procedure, abridged:
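HCV protein loss was quantified by ELISA on methanol/acetone-fixed cells 72 h after drug addition, probing with selected HCV-positive human plasma, and IC50 was defined as 50% reduction relative to untreated wells. The cells were Rep5.1 replicon cells cultured in DMEM-10 with 500 μg/ml G418, plated at 5000 per well and dosed with serial dilutions after 4 h attachment.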
In general terms: An ELISA detects its analyte on a solid surface through an enzyme-linked reagent.

The mark [1] stands for this setting: Hepatitis C virus, 72 h, concentration at which 50% of HCV proteins was decreased, Table 2, read-out: IC50.
[2] abbreviates: Hepatitis C virus, 72 h, decrease of HCV proteins measured by HCV antibody, Table 1, read-out: Level (IC50 values classified).
Where [3] appears, read: concentration at which 50% of HCV proteins was decreased, Table 2, read-out: IC50.

Read-outs that look alike come from different tables or passages of the source.

By IC50 is commonly meant the midpoint of a concentration-inhibition curve. Consider `CCOc1ccc(COC(=O)C2=C(C)NC(=S)NC2)cc1` [Compound 71, 6-methyl-2-thioxo-1,2,3,4-tetrahydro-pyrimidine-5-carboxylic acid 4-ethoxy-benzyl ester], for which the IC50 is 2.5 µM under setting [1] and 1 to 10 µM under setting [2].

In the case of `CC1=C(C(=O)OCc2ccsc2)C(CF)NC(=S)N1` (centres unmarked) [Compound 253, 4-fluoromethyl-6-methyl-2-thioxo-1,2,3,4-tetrahydro-pyrimidine-5-carboxylic acid thiophen-3-ylmethyl ester], the IC50 is 13 µM under setting [1] and 10 to 20 µM under setting [2].

For `CC1=C(C(=O)OCCC[S+]([O-])c2nc3ccccc3o2)C(CF)NC(=S)N1` (centres unmarked) [49′, 4-fluoromethyl-6-methyl-2-thioxo-1,2,3,4-tetrahydro-pyrimidine-5-carboxylic acid 3-(benzoxazol-2-ylsulfinyl)-propyl ester], the IC50 by setting is: under setting [1], 8 µM; under setting [2], 1 to 10 µM.

For the compound `CC1=C(C(=O)OCCc2ccccc2C)CNC(=S)N1` [Compound 133, 6-methyl-2-thioxo-1,2,3,4-tetrahydro-pyrimidine-5-carboxylic acid 2-o-tolyl-ethyl ester], the IC50 by setting is: under setting [1], < 0.4 µM; under setting [2], < 1 µM.

As to `CC1=C(C(=O)OCc2cccc(OCc3ccccc3)c2)CNC(=S)N1` [Compound 50, 6-methyl-2-thioxo-1,2,3,4-tetrahydro-pyrimidine-5-carboxylic acid 3-benzyloxy-benzyl ester], the IC50 is, setting by setting: under setting [1], < 0.5 µM; under setting [2], < 1 µM.

For `C=CCOCC#CCOC(=O)C1=C(C)NC(=S)NC1` [Compound 245, 6-methyl-2-thioxo-1,2,3,4-tetrahydro-pyrimidine-5-carboxylic acid 4-allyloxy-but-2-inyl ester], the IC50 under setting [3] was determined as 2.7 µM.

As to `COc1ccc(CCOC(=O)C2=C(C)NC(=S)NC2)cc1` [Compound 92, 6-methyl-2-thioxo-1,2,3,4-tetrahydro-pyrimidine-5-carboxylic acid 2-(4-methoxy-phenyl)-ethyl ester], the IC50 is 1 µM under setting [1] and < 1 µM under setting [2].

`CC1=C(C(=O)OCCc2ccsc2)C2(CCCC2)NC(=S)N1` [29′, 9-methyl-7-thioxo-6,8-diaza-spiro[4.5]dec-9-ene-10-carboxylic acid 2-thiophen-3-yl-ethyl ester]: the IC50 is, setting by setting: under setting [1], 12 µM; under setting [2], 10 to 20 µM.

On to `CC1=C(C(=O)OCC=Cc2ccsc2)C(CF)NC(=S)N1` (centres unmarked) [Compound 269, 4-fluoromethyl-6-methyl-2-thioxo-1,2,3,4-tetrahydro-pyrimidine-5-carboxylic acid 3-thiophen-3-yl-allyl ester], for which the IC50 was 5 µM under setting [1] and 1 to 10 µM under setting [2].

`COc1ccc(CCCOC(=O)C2=C(C)NC(=S)NC2)cc1OC` [Compound 36, 6-methyl-2-thioxo-1,2,3,4-tetrahydro-pyrimidine-5-carboxylic acid 3-(3,4-dimethoxy-phenyl)-propyl ester]: the IC50 is 84 µM under setting [1] and > 20 µM under setting [2].

For the compound `CC1=C(C(=O)OCCc2ccsc2)C(CO)NC(=S)N1` (centres unmarked) [3″, 4-hydroxymethyl-6-methyl-2-thioxo-1,2,3,4-tetrahydro-pyrimidine-5-carboxylic acid 2-thiophen-3-yl-ethyl ester], the IC50 reads like this: under setting [1], 9 µM; under setting [2], 1 to 10 µM.

As for `CC1=C(C(=O)OCc2sccc2C)CNC(=S)N1` [Compound 202, 6-methyl-2-thioxo-1,2,3,4-tetrahydro-pyrimidine-5-carboxylic acid 3-methyl-thiophen-2-ylmethyl ester], the IC50 was 9 µM under setting [1] and 1 to 10 µM under setting [2].

For `CC1=C(C(=O)OCC#Cc2ccccc2)CNC(=S)N1` [Compound 192, 6-methyl-2-thioxo-1,2,3,4-tetrahydro-pyrimidine-5-carboxylic acid 3-phenyl-prop-2-inyl ester], under setting [3], the concentration for half-maximal inhibition (IC50) was < 0.4 µM.

For `CC1=C(C(=O)OCC2CCCO2)CNC(=S)N1` (centres unmarked) [Compound 161, 6-methyl-2-thioxo-1,2,3,4-tetrahydro-pyrimidine-5-carboxylic acid tetrahydrofuran-2-ylmethyl ester], the IC50 under setting [1] was > 100 µM and the IC50 under setting [2] was > 20 µM.

On to `CC1=C(C(=O)OCC=Cc2ccco2)CNC(=S)N1` [Compound 251, 6-methyl-2-thioxo-1,2,3,4-tetrahydro-pyrimidine-5-carboxylic acid 3-furan-2-allyl ester], for which, under setting [3], the IC50 turned out to be 1.6 µM.

Regarding `CC1=C(C(=O)OCCCc2cccc3ccccc23)C(CO)NC(=S)N1` (centres unmarked) [24″, 4-hydroxymethyl-6-methyl-2-thioxo-1,2,3,4-tetrahydro-pyrimidine-5-carboxylic acid 3-naphthalen-1-yl-propyl ester], the IC50 is, setting by setting: under setting [1], 0.8 µM; under setting [2], < 1 µM.

As for `CC1=C(C(=O)OCC2CC=CCC2)C(CF)NC(=S)N1` (centres unmarked) [44′, 4-fluoromethyl-6-methyl-2-thioxo-1,2,3,4-tetrahydro-pyrimidine-5-carboxylic acid cyclohex-3-enylmethyl ester], the IC50 by setting is: under setting [1], 2.8 µM; under setting [2], 1 to 10 µM.

Consider `CC1=C(C(=O)OCCSc2nc3ccccc3o2)C(CF)NC(=S)N1` (centres unmarked) [46′, 4-fluoromethyl-6-methyl-2-thioxo-1,2,3,4-tetrahydro-pyrimidine-5-carboxylic acid 2-(benzoxazol-2-ylsulfanyl)-ethyl ester], for which the IC50 is, setting by setting: under setting [1], 6 µM; under setting [2], 1 to 10 µM.

Regarding `CC1=C(C(=O)OCCc2ccc(F)cc2Cl)C(CO)NC(=S)N1` (centres unmarked) [58″, 4-hydroxymethyl-6-methyl-2-thioxo-1,2,3,4-tetrahydro-pyrimidine-5-carboxylic acid 2-(2-chloro-4-fluoro-phenyl)-ethyl ester], the IC50 under setting [1] was 1.8 µM and the IC50 under setting [2] fell in the range of 1 to 10 µM.

As for `CC1=C(C(=O)OCc2ccccc2S(=O)(=O)CC(C)C)CNC(=S)N1` [Compound 113, 6-methyl-2-thioxo-1,2,3,4-tetrahydro-pyrimidine-5-carboxylic acid 2-(2-methyl-propane-1-sulfonyl)-benzyl ester], the IC50 is, setting by setting: under setting [1], > 100 µM; under setting [2], > 20 µM.

Take `CC1=C(C(=O)OCCc2c(F)c(F)cc(F)c2F)C(CF)NC(=S)N1` (centres unmarked) [65′, 4-fluoromethyl-6-methyl-2-thioxo-1,2,3,4-tetrahydro-pyrimidine-5-carboxylic acid 2-(2,3,5,6-tetrafluoro-phenyl)-ethyl ester]: the IC50 reads like this: under setting [1], 1.4 µM; under setting [2], 1 to 10 µM.

For `COc1ccc(OC)c(COC(=O)C2=C(C)NC(=S)NC2)c1` [Compound 174, 6-methyl-2-thioxo-1,2,3,4-tetrahydro-pyrimidine-5-carboxylic acid 2,5-dimethoxy-benzyl ester], the IC50 under setting [1] was 7 µM and the IC50 under setting [2] was 1 to 10 µM.

With `CCN(CC)c1ccc(CCOC(=O)C2=C(C)NC(=S)NC2CO)cc1[N+](=O)[O-]` (centres unmarked) [91″, 4-Hydroxymethyl-6-methyl-2-thioxo-1,2,3,4-tetrahydro-pyrimidine-5-carboxylic acid 2-(4-diethylamino-3-nitro-phenyl)-ethyl ester], the IC50 reads like this: under setting [1], 0.7 µM; under setting [2], < 1 µM.

Consider `CC1=C(C(=O)OCc2cc3ccsc3s2)CNC(=S)N1` [Compound 235, 6-methyl-2-thioxo-1,2,3,4-tetrahydro-pyrimidine-5-carboxylic acid thieno[2,3-b]thiophen-2-ylmethyl ester], for which the IC50 was 0.9 µM under setting [1] and < 1 µM under setting [2].

As to `CC1=C(C(=O)OCc2scc(C)c2Cl)CNC(=S)N1` [Compound 207, 6-methyl-2-thioxo-1,2,3,4-tetrahydro-pyrimidine-5-carboxylic acid 3-chloro-4-methyl-thiophen-2-ylmethyl ester], the IC50 is 0.3 µM under setting [1] and < 1 µM under setting [2].

As for `CC1=C(C(=O)OCCc2ccsc2)C(c2cnc[nH]2)NC(=S)N1` (centres unmarked) [50′, 4-(3H-imidazol-4-yl)-6-methyl-2-thioxo-1,2,3,4-tetrahydro-pyrimidine-5-carboxylic acid 2-thiophen-3-yl-ethyl ester], the IC50 reads like this: under setting [1], > 100 µM; under setting [2], > 20 µM.

On to `CCc1ccc(COC(=O)C2=C(C)NC(=S)NC2)cc1` [Compound 152, 6-methyl-2-thioxo-1,2,3,4-tetrahydro-pyrimidine-5-carboxylic acid 4-ethyl-benzyl ester], for which the IC50 is 0.5 µM under setting [1] and < 1 µM under setting [2].

Consider `CC1=C(C(=O)OCc2cc(C)cc(C)c2)C(CF)NC(=S)N1` (centres unmarked) [35′, 4-fluoromethyl-6-methyl-2-thioxo-1,2,3,4-tetrahydro-pyrimidine-5-carboxylic acid 3,5-dimethyl-benzyl ester], for which the IC50 is 0.8 µM under setting [1] and < 1 µM under setting [2].

As for `CC1=C(C(=O)OCCc2ccoc2)CNC(=S)N1` [Compound 254, 6-methyl-2-thioxo-1,2,3,4-tetrahydro-pyrimidine-5-carboxylic acid 2-furan-3-yl-ethyl ester], the IC50 was 3 µM under setting [1] and 1 to 10 µM under setting [2].

`CCCCc1ccc(COC(=O)C2=C(C)NC(=S)NC2)cc1` [Compound 51, 6-methyl-2-thioxo-1,2,3,4-tetrahydro-pyrimidine-5-carboxylic acid 4-butyl-benzyl ester]: the IC50 is < 0.5 µM under setting [1] and < 1 µM under setting [2].

`CC1=C(C(=O)OCCc2cc(F)cc(F)c2)C(CF)NC(=S)N1` (centres unmarked) [85′, 4-fluoromethyl-6-methyl-2-thioxo-1,2,3,4-tetrahydro-pyrimidine-5-carboxylic acid 2-(3,5-difluoro-phenyl)-ethyl ester]: the IC50 by setting is: under setting [1], 2.7 µM; under setting [2], 1 to 10 µM.
